# From patent publication US20220125051A1, “PRE-HARVEST DESICCATION METHOD” (SYNGENTA CROP PROTECTION AG, priority 2019, published 2022)
# Where two headings read alike, the source gives them in different places.
# How the values were obtained:
# Experiment in all cases: Post-emergence efficacy, Method A
# Assay type in all cases: in vivo
# [1] = system: Amaranthus palmeri (AMAPA); settings: Amaranthus palmeri, post-emergence, 312 h, evaluated after 13 days
# Experimental: (§1) Seeds of a variety of test species were sown in standard soil in pots. After cultivation for 14 days (post-emergence) under controlled conditions in a glasshouse (at 24/16° C., day/night; 14 hours light; 65% humidity), the plants were sprayed with an aqueous spray solution derived from the dissolution of the technical active ingredient formula (I) in a small amount of acetone and a special solvent and emulsifier mixture referred to as IF50 (11.12% Emulsogen EL360 TM+44.44% N-methylpyrrolidone+44.44% Dowanol DPM glycol ether), to create a 50 g/I solution which was then diluted to required concentration using 0.25% or 1% Empicol ESC70 (Sodium lauryl ether sulphate)+1% ammonium sulphate as diluent. The test plants were then grown in a glasshouse under controlled conditions (at 24/16° C., day/night; 14 hours light; 65% humidity) and watered twice daily. After 13 days the test was evaluated (100=total damage to plant; 0=no damage to plant).
# (§2) Ipomoea hederacea (IPOHE), Euphorbia heterophylla (EPHHL), Chenopodium album (CHEAL), Amaranthus palmeri (AMAPA), Lolium perenne (LOLPE), Digitaria sanguinalis (DIGSA), Eleusine indica (ELEIN), Echinochloa crus-galli (ECHCG), Setaria faberi (SETFA)
# Eleusine indica (ELEIN) = settings: Eleusine indica, post-emergence, 312 h, evaluated after 13 days
# Experimental: as §1, §2
# [2] = system: Echinochloa crus-galli (ECHCG); settings: Echinochloa crus-galli, post-emergence, 312 h, evaluated after 13 days
# Experimental: as §1, §2
# [3] = system: Chenopodium album (CHEAL); settings: Chenopodium album, post-emergence, 312 h, evaluated after 13 days
# Experimental: as §1, §2
# [4] = system: Ipomoea hederacea (IPOHE); settings: Ipomoea hederacea, post-emergence, 312 h, evaluated after 13 days
# Experimental: as §1, §2
# [5] = system: Digitaria sanguinalis (DIGSA); settings: Digitaria sanguinalis, post-emergence, 312 h, evaluated after 13 days
# Experimental: as §1, §2
# Lolium perenne (LOLPE) = settings: Lolium perenne, post-emergence, 312 h, evaluated after 13 days
# Experimental: as §1, §2
# [6] = system: Euphorbia heterophylla (EPHHL); settings: Euphorbia heterophylla, post-emergence, 312 h, evaluated after 13 days
# Experimental: as §1, §2
# Setaria faberi (SETFA) = settings: Setaria faberi, post-emergence, 312 h, evaluated after 13 days
# Experimental: as §1, §2
# [7] = Application rate 500 g/Ha, 100=total damage to plant, 0=no damage to plant, read-out: Control of weed species after post-emergence application, AMAPA
# [8] = Application rate 500 g/Ha, 100=total damage to plant, 0=no damage to plant, read-out: Control of weed species after post-emergence application, ELEIN
# [9] = Application rate 500 g/Ha, 100=total damage to plant, 0=no damage to plant, read-out: Control of weed species after post-emergence application, ECHCG
# [10] = Application rate 500 g/Ha, 100=total damage to plant, 0=no damage to plant, read-out: Control of weed species after post-emergence application, CHEAL
# [11] = Application rate 500 g/Ha, 100=total damage to plant, 0=no damage to plant, read-out: Control of weed species after post-emergence application, IPOHE
# [12] = Application rate 500 g/Ha, 100=total damage to plant, 0=no damage to plant, read-out: Control of weed species after post-emergence application, DIGSA
# [13] = Application rate 500 g/Ha, 100=total damage to plant, 0=no damage to plant, read-out: Control of weed species after post-emergence application, LOLPE
# [14] = Application rate 500 g/Ha, 100=total damage to plant, 0=no damage to plant, read-out: Control of weed species after post-emergence application, EPHHL
# [15] = Application rate 500 g/Ha, 100=total damage to plant, 0=no damage to plant, read-out: Control of weed species after post-emergence application, SETFA
# [16] = Application Rate 500 g/Ha, Method A, read-out: Control of weed species after post-emergence application, AMAPA (100=total damage to plant; 0=no damage to plant)
# [17] = Application Rate 500 g/Ha, Method A, read-out: Control of weed species after post-emergence application, ELEIN (100=total damage to plant; 0=no damage to plant)
# [18] = Application Rate 500 g/Ha, Method A, read-out: Control of weed species after post-emergence application, ECHCG (100=total damage to plant; 0=no damage to plant)
# [19] = Application Rate 500 g/Ha, Method A, read-out: Control of weed species after post-emergence application, CHEAL (100=total damage to plant; 0=no damage to plant)
# [20] = Application Rate 500 g/Ha, Method A, read-out: Control of weed species after post-emergence application, IPOHE (100=total damage to plant; 0=no damage to plant)
# [21] = Application Rate 500 g/Ha, Method A, read-out: Control of weed species after post-emergence application, DIGSA (100=total damage to plant; 0=no damage to plant)
# [22] = Application Rate 500 g/Ha, Method A, read-out: Control of weed species after post-emergence application, LOLPE (100=total damage to plant; 0=no damage to plant)
# [23] = Application Rate 500 g/Ha, Method A, read-out: Control of weed species after post-emergence application, EPHHL (100=total damage to plant; 0=no damage to plant)
# [24] = Application Rate 500 g/Ha, Method A, read-out: Control of weed species after post-emergence application, SETFA (100=total damage to plant; 0=no damage to plant)
Compound,"pest or weed control at 500 g/ha [1, 7]",pest or weed control at 500 g/ha (Eleusine indica (ELEIN); [8]),"pest or weed control at 500 g/ha [2, 9]","pest or weed control at 500 g/ha [3, 10]","pest or weed control at 500 g/ha [4, 11]","pest or weed control at 500 g/ha [5, 12]",pest or weed control at 500 g/ha (Lolium perenne (LOLPE); [13]),"pest or weed control at 500 g/ha [6, 14]",pest or weed control at 500 g/ha (Setaria faberi (SETFA); [15]),"pest or weed control at 500 g/ha [1, 16]",pest or weed control at 500 g/ha (Eleusine indica (ELEIN); [17]),"pest or weed control at 500 g/ha [2, 18]","pest or weed control at 500 g/ha [3, 19]","pest or weed control at 500 g/ha [4, 20]","pest or weed control at 500 g/ha [5, 21]",pest or weed control at 500 g/ha (Lolium perenne (LOLPE); [22]),"pest or weed control at 500 g/ha [6, 23]",pest or weed control at 500 g/ha (Setaria faberi (SETFA); [24])
O=C(O)CC[n+]1ccc(-c2ccnc(C(F)(F)F)n2)cn1 [Compound A118],80%,70%,40%,80%,60%,90%,90%,90%,70%,,,,,,,,,
"NC(=O)c1cnc(-c2cc[n+](CCC(=O)O)nc2)cn1 [Compound A202, 3-[4-(5-carbamoylpyrazin-2-yl)pyridazin-1-ium-1-yl]propanoic acid 2,2,2-trifluoroacetate]",,,,,,,,,,100%,20%,80%,90%,60%,60%,70%,100%,70%
O=S(=O)([O-])CC[n+]1ccc(-c2ccccn2)cn1 [Compound A64],90%,100%,60%,90%,20%,80%,80%,100%,90%,,,,,,,,,
COC(=O)c1cnc(-c2cc[n+](CCS(=O)(=O)[O-])nc2)nc1 [Compound A33],100%,80%,40%,80%,40%,60%,50%,60%,60%,,,,,,,,,
CC(C[n+]1ccc(-c2ncccn2)cn1)NS(=O)(=O)[O-] (stereo not drawn) [Compound A221],,,,,,,,,,100%,100%,60%,90%,60%,100%,60%,90%,80%
Cc1cnc(-c2cc[n+](CCC(=O)O)nc2)c(F)c1 [Compound A178],,,,,,,,,,90%,0%,10%,70%,20%,10%,0%,40%,10%
Cc1cnc(-c2cc[n+](CCS(=O)(=O)[O-])nc2)c(C)c1 [Compound A152],20%,20%,20%,10%,0%,30%,10%,20%,20%,,,,,,,,,
CN(C)C(=O)c1cnc(-c2cc[n+](CCC(=O)[O-])nc2)nc1 [Compound A92],90%,90%,80%,90%,100%,60%,50%,70%,90%,,,,,,,,,
COc1cc(OC)nc(-c2cc[n+](CCC(=O)[O-])nc2)n1 [Compound A76],30%,30%,30%,20%,20%,20%,30%,30%,40%,,,,,,,,,
CC(=O)c1ccnc(-c2cc[n+](CCS(=O)(=O)[O-])nc2)n1 [Compound A49],100%,100%,60%,80%,60%,90%,50%,70%,100%,,,,,,,,,
"O=C(O)CC[n+]1ccc(-c2ncc(Cl)c(=O)[nH]2)cn1 [Compound A161, 3-[4-(5-chloro-6-oxo-1H-pyrimidin-2-yl)pyridazin-1-ium-1-yl]propanoic acid 2,2,2-trifluoroacetate]",,,,,,,,,,30%,20%,20%,70%,20%,20%,10%,50%,10%
Cc1ccnc(-c2cc[n+](CCS(=O)(=O)[O-])nc2)n1 [Compound A21],100%,100%,60%,80%,40%,90%,80%,80%,90%,,,,,,,,,
O=C(O)CC[n+]1ccc(-c2cc(C(F)(F)F)ncn2)cn1 [Compound A119],100%,30%,30%,100%,50%,40%,30%,70%,40%,,,,,,,,,
O=c1cc(-c2cc[n+](CCCS(=O)(=O)[O-])nc2)nc[nH]1 [Compound A116],100%,20%,20%,80%,10%,30%,10%,50%,30%,,,,,,,,,
